In patent US20230382888A1, “HDAC INHIBITOR SOLID STATE FORMS” (Viracta Subsidiary, Inc., priority 2020, published 2023):
Entries after “also recorded” stand apart in the source; their conditions may differ.

Columns and labels:
Format in all cases: physicochemical
[1] = Intrinsic dissolution rate (IDR) in FaSSGF
[2] = Static storage stability at elevated temperature/humidity (XRPD, HPLC)
[3] = Competitive slurries in different water activity (thermodynamic stability)
Description: Competitive slurries of the anhydrous and hydrated forms in different water activity at 50° C. and 5° C. were used to determine the thermodynamic stability relationships.

[4] = Gravimetric vapour sorption (GVS)
Description: Sorption isotherms were obtained using a SMS DVS Intrinsic moisture sorption analyser, controlled by DVS Intrinsic Control software. The sample temperature was maintained at 25° C. by the instrument controls. The humidity was controlled by mixing streams of dry and wet nitrogen, with a total flow rate of 200 ml/min. The relative humidity was measured by a calibrated Rotronic probe (dynamic range of 1.0 — 100% RH), located near the sample. The weight change, (mass relaxation) of the sample as a function of % RH was constantly monitored by a microbalance (accuracy ±0.005 mg). Typically, 20-30 mg of sample was placed in a tared mesh stainless steel basket under ambient conditions. The sample was loaded and unloaded at 40% RH and 25° C. (typical room conditions). A moisture sorption isotherm was performed as outlined below (2 scans per complete cycle). The standard isotherm was performed at 25° C. at 10% RH intervals over a 0-90% RH range. Typically, a double cycle (4 scans) was carried out. Data analysis was carried out within Microsoft Excel using the DVS Analysis Suite. [table]

[5] = Thermodynamic aqueous solubility; conditions: for pH of saturated solution: water, after 24 hours equilibration at 25° C.
Description: Aqueous solubility was determined by suspending sufficient compound in 0.5 ml deionized water to give a maximum final concentration of 40 mg/ml of the parent free-form of the compound. The suspension was equilibrated at 25° C., on a Heidolph plate shaker set to 750 rpm for 24 hours. After equilibration, the appearance was noted and the pH of the saturated solution was measured. Samples forming suspensions were centrifuged for 4 min at 13,500 rpm. Samples were then filtered through a glass fiber C filter (particle retention 1.2 μm), before dilution with H2 O as appropriate. Quantitation was by HPLC (see Table 2 for parameters) with reference to a standard solution of approximately 0.15 mg/ml in DMSO. Different volumes of the standard, diluted and undiluted sample solutions were injected. The solubility was calculated using the peak areas determined by integration of the peak found at the same retention time as the principal peak in the standard injection. Analysis was performed on an Agilent HP1100/Infinity II 1260 series system equipped with a diode array detector and using OpenLAB software.

- IDR relative to free base form A ([1]; FaSSGF): ~8 times
- IDR in FaSSGF ([1]; Fasted State Simulated Gastric Fluid): 9.1 mg/min/cm^2
- HPLC purity after static storage ([2]; 25° C./97% RH, 1 week): no significant drop in purity
- HPLC purity after static storage ([2]; 25° C./97% RH, 14 weeks): 93.5%
- Solid form by XRPD after static storage ([2]; 25° C./97% RH, 14 weeks): Mesylate Form 1
- HPLC purity after static storage ([2]; 40° C./75% RH, 1 week): no significant drop in purity
- HPLC purity after static storage ([2]; 40° C./75% RH, 14 weeks): Form 2 (94.7% purity)
- Solid form by XRPD after static storage ([2]; 40° C./75% RH, 14 weeks): Mixture of Mesylate Form 1 and Mesylate
- Water activity (aw) up to which the form is the most stable ([3]; competitive slurries at 50° C.): 0.6
- Water activity (aw) up to which the form is the most stable ([3]; competitive slurries at ° C. (so in the source)): ≥ 0.3
- Reversible water uptake by GVS ([4]; 0-90% RH, 25° C.): 0.35% reversible uptake from 0-90%
- Hygroscopicity by GVS ([4]; 25° C.): Slightly hygroscopic
- solubility at 24 h ([5]; thermodynamic from solid, deionized water, 25° C., 24 hours, maximum final concentration 40 mg/ml of parent free-form): 40 mg/mL
- pH of saturated solution [5]: (pH = 3.2)
- pH of saturated solution ([5]; listed as mesylate): ~3.2
SMILES: O=C(NO)c1cnc(N2C[C@@H]3[C@H](C2)[C@H]3NCc2ccc3cc(F)ccc3n2)nc1 [Mesylate Form 1, N-hydroxy 2-{6-[(6-fluoro-quinolin-2-ylmethyl)-amino]-3-aza-bicyclo[3.1.0]hex-3-yl}pyrimidine-5-carboxamide]
- Solid form by XRPD after static storage ([2]; 25° C./97% RH, 7 days (1 week)): unchanged; also recorded: No change, Mesylate Form 1
- Solid form by XRPD after static storage ([2]; 40° C./75% RH, 7 days (1 week)): unchanged; also recorded: No change, Mesylate Form 1
- XRPD post-GVS (solid form) ([4]; residue after GVS): no change; also recorded: XRPD remains unchanged
